Measured values as given in ChEMBL document CHEMBL3045223, “Synthesis, nematicidal and antimicrobial properties of Bis-[4-methoxy-3-[3-(4-fluorophenyl)-6-(4-methylphenyl)-2(aryl)-tetrahydro-2H-pyrazolo[3,4-d]thiazol-5-yl]phenyl]methanes” (2009).
In brackets after ≈: the same amount, converted by molar mass. Activity calls are given as the source filed them. The rule behind the calls is not given here.

What was measured:
Type in all cases: functional
[1] = test system: Trichophyton mentagrophytes; assay: Antifungal activity against Trichophyton mentagrophytes IFO 40996 assessed as growth inhibition at 300 ug/disc at 37 degC for 48 hr; settings: IFO 40996, 48 h, read-out: IZ
[2] = test system: Lysinibacillus sphaericus; assay: Antibacterial activity against Lysinibacillus sphaericus MTCC 11 assessed as inhibition zones at 300 ug/disk at 37 degC for 24 hr; settings: MTCC 11, 24 h, read-out: IZ
[3] = test system: Pseudomonas aeruginosa; assay: Antibacterial activity against Pseudomonas aeruginosa MTCC 741 assessed as inhibition zones at 300 ug/disk at 37 degC for 24 hr; settings: MTCC 741, 24 h, read-out: IZ
[4] = test system: Aspergillus fumigatus; assay: Antifungal activity against Aspergillus fumigatus HIC 6094 assessed as growth inhibition at 300 ug/disc at 37 degC for 48 hr; settings: HIC 6094, 48 h, read-out: IZ
[5] = test system: Aspergillus fumigatus; assay: Antifungal activity against Aspergillus fumigatus HIC 6094 assessed as growth inhibition at 37 degC for 48 hr
[6] = test system: Trichophyton rubrum; assay: Antifungal activity against Trichophyton rubrum IFO 9185 assessed as growth inhibition at 300 ug/disk at 37 degC for 48 hr; settings: IFO 9185, 48 h, read-out: IZ
[7] = test system: Trichophyton rubrum; assay: Antifungal activity against Trichophyton rubrum IFO 9185 assessed as growth inhibition at 37 degC for 48 hr
[8] = test system: Klebsiella aerogenes; assay: Antibacterial activity against Enterobacter aerogenes MTCC 39 assessed as growth arrest at 37 degC for 24 hr; settings: MTCC 39, 24 h
[9] = test system: Candida albicans; assay: Antifungal activity against Candida albicans ATCC 10231 assessed as growth inhibition at 300 ug/disk at 37 degC for 48 hr; settings: ATCC 10231, 48 h, read-out: IZ
[10] = test system: Staphylococcus aureus; assay: Antibacterial activity against Staphylococcus aureus MTCC 96 assessed as growth arrest at 37 degC for 24 hr; settings: MTCC 96, 24 h
[11] = test system: Candida albicans; assay: Antifungal activity against Candida albicans ATCC 10231 assessed as growth inhibition at 37 degC for 48 hr; settings: ATCC 10231, 48 h
[12] = test system: Pseudomonas aeruginosa; assay: Antibacterial activity against Pseudomonas aeruginosa MTCC 741 assessed as growth arrest at 37 degC for 24 hr; settings: MTCC 741, 24 h
[13] = test system: Lysinibacillus sphaericus; assay: Antibacterial activity against Lysinibacillus sphaericus MTCC 11 assessed as growth arrest at 37 degC for 24 hr; settings: MTCC 11, 24 h
[14] = test system: Bacillus subtilis; assay: Antibacterial activity against Bacillus subtilis MTCC 441 assessed as growth arrest at 37 degC for 24 hr; settings: MTCC 441, 24 h
[15] = test system: Trichophyton mentagrophytes; assay: Antifungal activity against Trichophyton mentagrophytes IFO 40996 assessed as growth inhibition at 37 degC for 48 hr
[16] = test system: Ditylenchus myceliophagus; assay: Nematicidal activity against Ditylenchus myceliophagus assessed as immobility; settings: read-out: LD50 (the source's name)
[17] = test system: Chromobacterium violaceum; assay: Antibacterial activity against Chromobacterium violaceum MTCC 2656 assessed as inhibition zones at 300 ug/disk at 37 degC for 24 hr; settings: MTCC 2656, 24 h, read-out: IZ
[18] = test system: Staphylococcus aureus; assay: Antibacterial activity against Staphylococcus aureus MTCC 96 assessed as inhibition zones at 300 ug/disc at 37 degC for 24 hr; settings: MTCC 96, 24 h, read-out: IZ
[19] = test system: Chromobacterium violaceum; assay: Antibacterial activity against Chromobacterium violaceum MTCC 2656 assessed as growth arrest at 37 degC for 24 hr; settings: MTCC 2656, 24 h
[20] = test system: Bacillus subtilis; assay: Antibacterial activity against Bacillus subtilis MTCC 441 assessed as inhibition zones at 300 ug/disk at 37 degC for 24 hr; settings: MTCC 441, 24 h, read-out: IZ
[21] = test system: Klebsiella aerogenes; assay: Antibacterial activity against Enterobacter aerogenes MTCC 39 assessed as inhibition zones at 300 ug/disk at 37 degC for 24 hr; settings: MTCC 39, 24 h, read-out: IZ
[22] = test system: Caenorhabditis elegans; assay: Nematicidal activity against Caenorhabditis elegans assessed as immobility; settings: read-out: LD50 (the source's name)

SMILES	zone of inhibition at 300 µg/disc [1]	zone of inhibition at 300 µg/disc [2]	zone of inhibition at 300 µg/disc [3]	zone of inhibition at 300 µg/disc [4]	zone of inhibition at 300 µg/disc [6]	MBC [8]	MIC [8]	zone of inhibition at 300 µg/disc [9]	MBC [10]	MIC [10]	MBC [11]	MIC [11]	MBC [12]	MIC [12]	MBC [13]	MIC [13]	MBC [14]	MIC [14]	LC50 [16]	zone of inhibition at 300 µg/disc [17]	further results
COc1ccc(Cc2ccc(OC)c(C3SC4C(=NN(C)C4c4ccc(F)cc4)N3c3ccc(Cl)cc3)c2)cc1C1SC2C(=NN(C)C2c2ccc(F)cc2)N1c1ccc(Cl)cc1 (stereo not drawn)	16 mm	20 mm	21 mm	15 mm	13 mm	25 µg/mL (≈ 27.2 µM)	12.5 µg/mL (≈ 13.6 µM)	18 mm	12.5 µg/mL (≈ 13.6 µM)	12.5 µg/mL (≈ 13.6 µM)	25 µg/mL (≈ 27.2 µM)	12.5 µg/mL (≈ 13.6 µM)	25 µg/mL (≈ 27.2 µM)	12.5 µg/mL (≈ 13.6 µM)	25 µg/mL (≈ 27.2 µM)	12.5 µg/mL (≈ 13.6 µM)	50 µg/mL (≈ 54.4 µM)	12.5 µg/mL (≈ 13.6 µM)	190 µg/mL (≈ 207 µM)	19 mm	MBC ([5]; HIC 6094, 48 h): 50 µg/mL (≈ 54.4 µM); MIC ([5]; HIC 6094, 48 h): 6.25 µg/mL (≈ 6.79 µM); MBC ([7]; IFO 9185, 48 h): 25 µg/mL (≈ 27.2 µM); MIC ([7]; IFO 9185, 48 h): 6.25 µg/mL (≈ 6.79 µM); MBC [15]: inactive; MIC [15]: inactive; zone of inhibition at 300 µg/disc [18]: 20 mm; MBC [19]: 50 µg/mL (≈ 54.4 µM); MIC [19]: 12.5 µg/mL (≈ 13.6 µM); zone of inhibition at 300 µg/disc [20]: 21 mm; zone of inhibition at 300 µg/disc [21]: 21 mm; LC50 [22]: 210 µg/mL (≈ 228 µM)
COc1ccc(Cc2ccc(OC)c(C3SC4C(=NN(Cc5ccccc5)C4c4ccc(F)cc4)N3c3ccc([N+](=O)[O-])cc3)c2)cc1C1SC2C(=NN(Cc3ccccc3)C2c2ccc(F)cc2)N1c1ccc([N+](=O)[O-])cc1 (stereo not drawn)	13 mm	21 mm	10 mm	16 mm	11 mm	25 µg/mL (≈ 22.9 µM)	12.5 µg/mL (≈ 11.4 µM)	19 mm	50 µg/mL (≈ 45.7 µM)	12.5 µg/mL (≈ 11.4 µM)	25 µg/mL (≈ 22.9 µM)	12.5 µg/mL (≈ 11.4 µM)	50 µg/mL (≈ 45.7 µM)	12.5 µg/mL (≈ 11.4 µM)	50 µg/mL (≈ 45.7 µM)	12.5 µg/mL (≈ 11.4 µM)	12.5 µg/mL (≈ 11.4 µM)	6.25 µg/mL (≈ 5.72 µM)	190 µg/mL (≈ 174 µM)	13 mm	MBC [5]: inactive; MIC [5]: inactive; MBC [7]: inactive; MIC [7]: inactive; MBC [15]: inactive; MIC [15]: inactive; zone of inhibition at 300 µg/disc [18]: 19 mm; MBC [19]: 12.5 µg/mL (≈ 11.4 µM); MIC [19]: 6.25 µg/mL (≈ 5.72 µM); zone of inhibition at 300 µg/disc [20]: 15 mm; zone of inhibition at 300 µg/disc [21]: 19 mm; LC50 [22]: 190 µg/mL (≈ 174 µM)
COc1ccc(Cc2ccc(OC)c(C3SC4C(=NN(Cc5ccccc5)C4c4ccc(F)cc4)N3c3ccc(Cl)cc3)c2)cc1C1SC2C(=NN(Cc3ccccc3)C2c2ccc(F)cc2)N1c1ccc(Cl)cc1 (stereo not drawn)	16 mm	23 mm	18 mm	17 mm	14 mm	12.5 µg/mL (≈ 11.7 µM)	6.25 µg/mL (≈ 5.83 µM)	21 mm	25 µg/mL (≈ 23.3 µM)	6.25 µg/mL (≈ 5.83 µM)	6.25 µg/mL (≈ 5.83 µM)	3.12 µg/mL (≈ 2.91 µM)	50 µg/mL (≈ 46.6 µM)	12.5 µg/mL (≈ 11.7 µM)	50 µg/mL (≈ 46.6 µM)	6.25 µg/mL (≈ 5.83 µM)	12.5 µg/mL (≈ 11.7 µM)	6.25 µg/mL (≈ 5.83 µM)	180 µg/mL (≈ 168 µM)	18 mm	MBC ([5]; HIC 6094, 48 h): 12.5 µg/mL (≈ 11.7 µM); MIC ([5]; HIC 6094, 48 h): 6.25 µg/mL (≈ 5.83 µM); MBC ([7]; IFO 9185, 48 h): 12.5 µg/mL (≈ 11.7 µM); MIC ([7]; IFO 9185, 48 h): 6.25 µg/mL (≈ 5.83 µM); MBC ([15]; IFO 40996, 48 h): 25 µg/mL (≈ 23.3 µM); MIC ([15]; IFO 40996, 48 h): 12.5 µg/mL (≈ 11.7 µM); zone of inhibition at 300 µg/disc [18]: 30 mm; MBC [19]: 6.25 µg/mL (≈ 5.83 µM); MIC [19]: 6.25 µg/mL (≈ 5.83 µM); zone of inhibition at 300 µg/disc [20]: 23 mm; zone of inhibition at 300 µg/disc [21]: 23 mm; LC50 [22]: 200 µg/mL (≈ 187 µM)
COc1ccc(Cc2ccc(OC)c(C3SC4C(=NN(Cc5ccccc5)C4c4ccc(F)cc4)N3c3ccc(C)cc3)c2)cc1C1SC2C(=NN(Cc3ccccc3)C2c2ccc(F)cc2)N1c1ccc(C)cc1 (stereo not drawn)	16 mm	14 mm	14 mm	16 mm	15 mm	50 µg/mL (≈ 48.5 µM)	12.5 µg/mL (≈ 12.1 µM)	22 mm	6.25 µg/mL (≈ 6.06 µM)	6.25 µg/mL (≈ 6.06 µM)	6.25 µg/mL (≈ 6.06 µM)	3.12 µg/mL (≈ 3.03 µM)	25 µg/mL (≈ 24.2 µM)	12.5 µg/mL (≈ 12.1 µM)	12.5 µg/mL (≈ 12.1 µM)	6.25 µg/mL (≈ 6.06 µM)	12.5 µg/mL (≈ 12.1 µM)	6.25 µg/mL (≈ 6.06 µM)	190 µg/mL (≈ 184 µM)	17 mm	MBC ([5]; HIC 6094, 48 h): 25 µg/mL (≈ 24.2 µM); MIC ([5]; HIC 6094, 48 h): 25 µg/mL (≈ 24.2 µM); MBC ([7]; IFO 9185, 48 h): 25 µg/mL (≈ 24.2 µM); MIC ([7]; IFO 9185, 48 h): 12.5 µg/mL (≈ 12.1 µM); MBC ([15]; IFO 40996, 48 h): 25 µg/mL (≈ 24.2 µM); MIC ([15]; IFO 40996, 48 h): 25 µg/mL (≈ 24.2 µM); zone of inhibition at 300 µg/disc [18]: 24 mm; MBC [19]: 12.5 µg/mL (≈ 12.1 µM); MIC [19]: 12.5 µg/mL (≈ 12.1 µM); zone of inhibition at 300 µg/disc [20]: 20 mm; zone of inhibition at 300 µg/disc [21]: 22 mm; LC50 [22]: 210 µg/mL (≈ 204 µM)
